According to patent publication US11306101B2 (Celgene Corporation, priority 2019, dated 2022):

Target: T1, CK1α (Homo sapiens, UniProt P48729+Q96SW2)
T1 construct: expressed in transfected cells
Test: CK1α ePL degradation assay in MDS-L cells
Format: cell-based
Settings: MDS-L cells expressing ePL-tagged CK1α; for DC50: concentration giving 50% CK1α degradation vs DMSO control; for Y: lowest measured CK1α level normalized to DMSO control
In short: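 Degradation efficiency is reported as Y value, the minimum CK1α level (percent of DMSO control) across doses. Readout used InCELL Hunter luminescent detection after MDS-L cell exposure at 37° C for stated times, doses 10 μM down to 0.0005 μM in 3-fold steps.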

T1 sequence (P48729 whole entry): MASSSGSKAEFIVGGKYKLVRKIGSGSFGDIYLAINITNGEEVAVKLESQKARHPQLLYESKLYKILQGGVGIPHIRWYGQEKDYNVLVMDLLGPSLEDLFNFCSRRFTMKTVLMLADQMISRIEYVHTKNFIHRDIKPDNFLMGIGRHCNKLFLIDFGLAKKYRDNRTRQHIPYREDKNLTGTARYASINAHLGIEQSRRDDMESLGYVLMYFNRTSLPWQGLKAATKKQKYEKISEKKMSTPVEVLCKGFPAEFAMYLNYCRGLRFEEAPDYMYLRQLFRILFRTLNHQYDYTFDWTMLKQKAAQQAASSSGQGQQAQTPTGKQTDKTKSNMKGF
T1 sequence (Q96SW2 whole entry): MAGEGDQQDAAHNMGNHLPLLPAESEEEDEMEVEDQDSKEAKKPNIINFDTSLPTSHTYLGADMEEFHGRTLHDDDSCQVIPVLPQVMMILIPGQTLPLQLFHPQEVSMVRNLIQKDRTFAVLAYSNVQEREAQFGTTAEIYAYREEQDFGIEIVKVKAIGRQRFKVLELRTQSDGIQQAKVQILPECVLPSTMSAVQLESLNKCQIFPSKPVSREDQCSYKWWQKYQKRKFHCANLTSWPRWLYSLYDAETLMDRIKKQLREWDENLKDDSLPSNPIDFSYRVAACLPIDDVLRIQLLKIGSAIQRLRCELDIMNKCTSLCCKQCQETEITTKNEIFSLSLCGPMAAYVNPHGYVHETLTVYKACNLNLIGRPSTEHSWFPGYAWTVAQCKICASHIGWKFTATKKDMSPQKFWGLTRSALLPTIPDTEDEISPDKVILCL
T1 sequence (Q16531 whole entry partner): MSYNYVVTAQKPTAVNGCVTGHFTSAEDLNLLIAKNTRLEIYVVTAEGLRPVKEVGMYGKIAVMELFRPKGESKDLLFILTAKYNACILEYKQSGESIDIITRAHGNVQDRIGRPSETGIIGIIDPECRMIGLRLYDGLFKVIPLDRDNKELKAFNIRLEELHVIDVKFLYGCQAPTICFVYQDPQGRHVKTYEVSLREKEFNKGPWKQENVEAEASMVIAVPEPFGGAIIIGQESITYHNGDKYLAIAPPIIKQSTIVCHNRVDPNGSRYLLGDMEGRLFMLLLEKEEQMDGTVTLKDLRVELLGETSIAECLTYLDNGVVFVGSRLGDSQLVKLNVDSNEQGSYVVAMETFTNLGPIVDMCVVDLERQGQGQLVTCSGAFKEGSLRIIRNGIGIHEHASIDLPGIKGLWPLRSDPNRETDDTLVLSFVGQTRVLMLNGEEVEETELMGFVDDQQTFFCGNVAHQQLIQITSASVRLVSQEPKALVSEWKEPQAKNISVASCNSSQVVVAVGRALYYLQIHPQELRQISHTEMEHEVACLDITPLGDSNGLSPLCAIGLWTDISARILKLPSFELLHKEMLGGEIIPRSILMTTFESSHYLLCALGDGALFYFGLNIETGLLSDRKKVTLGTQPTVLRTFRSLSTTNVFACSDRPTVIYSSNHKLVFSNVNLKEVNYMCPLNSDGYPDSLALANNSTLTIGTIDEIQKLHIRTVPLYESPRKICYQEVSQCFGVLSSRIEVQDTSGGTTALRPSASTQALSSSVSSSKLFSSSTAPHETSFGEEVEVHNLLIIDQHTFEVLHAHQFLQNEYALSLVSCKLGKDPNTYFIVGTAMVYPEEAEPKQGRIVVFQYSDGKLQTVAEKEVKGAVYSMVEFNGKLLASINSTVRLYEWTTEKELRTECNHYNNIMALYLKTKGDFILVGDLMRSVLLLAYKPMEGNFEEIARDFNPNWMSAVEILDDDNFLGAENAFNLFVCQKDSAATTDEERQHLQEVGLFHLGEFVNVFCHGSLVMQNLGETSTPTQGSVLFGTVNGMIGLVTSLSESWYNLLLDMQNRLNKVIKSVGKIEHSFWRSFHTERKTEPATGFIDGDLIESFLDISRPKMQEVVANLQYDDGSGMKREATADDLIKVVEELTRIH

Structure (SMILES)	DC50 [nM]	Y
O=C1CCC(N2Cc3cc(C(=O)NC(C4CCC5(CC4)CC(O)C5)C(F)(F)F)ccc3C2=O)C(=O)N1 (stereo not drawn) [Example 176, 2-(2,6-dioxopiperidin-3-yl)-1-oxo-N-(2,2,2-trifluoro-1-(2-hydroxyspiro[3.5]nonan-7-yl)ethyl)isoindoline-5-carboxamide]	100 to 500	* (a Y value (shown as *) of 0<Y≤20%)
O=C1CCC(N2Cc3cc(C(=O)N[C@H](c4cncnc4)C(F)(F)F)ccc3C2=O)C(=O)N1 (stereo partly drawn) [Example 66, 2-(2,6-dioxopiperidin-3-yl)-1-oxo-N-((R)-2,2,2-trifluoro-1-(pyrimidin-5-yl)ethyl)isoindoline-5-carboxamide]	500 to 1000	** (a Y value (shown as**) of 20%<Y≤35%)
COc1cc(F)ccc1[C@@H](NC(=O)c1ccc2c(c1)CN(C1CCC(=O)NC1=O)C2=O)C(F)(F)F (stereo partly drawn) [Example 67, 2-(2,6-dioxopiperidin-3-yl)-1-oxo-N-((R)-2,2,2-trifluoro-1-(4-fluoro-2-methoxyphenyl)ethyl)isoindoline-5-carboxamide]	< 100	* (a Y value (shown as *) of 0<Y≤20%)
O=C1CCC(N2Cc3c(ccc(C(=O)N[C@H](c4ccccc4F)C(F)(F)F)c3F)C2=O)C(=O)N1 (stereo partly drawn) [Example 100, 2-(2,6-dioxopiperidin-3-yl)-4-fluoro-1-oxo-N-((R)-2,2,2-trifluoro-1-(2-fluorophenyl)ethyl)isoindoline-5-carboxamide]	100 to 500	* (a Y value (shown as *) of 0<Y≤20%)
C[C@H](NC(=O)c1cc2c(cc1F)C(=O)N(C1CCC(=O)NC1=O)C2)c1ccccc1 (stereo partly drawn) [Example 85, 2-(2,6-dioxopiperidin-3-yl)-6-fluoro-1-oxo-N-((S)-1-phenylethyl)isoindoline-5-carboxamide]	500 to 1000	*** (a Y value (shown as***) of 35%<Y<50%)
O=C1CCC(N2Cc3cc(C(=O)N[C@H](CC(F)(F)F)c4cccc(F)c4)ccc3C2=O)C(=O)N1 (stereo partly drawn) [Example 190, 2-(2,6-dioxopiperidin-3-yl)-1-oxo-N-((R)-3,3,3-trifluoro-1-(3-fluorophenyl)propyl)isoindoline-5-carboxamide]	< 100	** (a Y value (shown as**) of 20%<Y≤35%)
Cn1cc([C@@H](NC(=O)c2ccc3c(c2)CN(C2CCC(=O)NC2=O)C3=O)C(F)(F)F)cn1 (stereo partly drawn) [Example 70, 2-(2,6-dioxopiperidin-3-yl)-1-oxo-N-((R)-2,2,2-trifluoro-1-(1-methyl-1H-pyrazol-4-yl)ethyl)isoindoline-5-carboxamide]	100 to 500	** (a Y value (shown as**) of 20%<Y≤35%)
CC[C@H](NC(=O)c1ccc2c(c1)CN(C1CCC(=O)NC1=O)C2=O)c1ccccc1 (stereo partly drawn) [Example 6]	< 100	* (a Y value (shown as *) of 0<Y≤20%)
O=C1CCC(N2Cc3c(ccc(C(=O)N[C@H](c4ccc(F)cc4F)C(F)(F)F)c3F)C2=O)C(=O)N1 (stereo partly drawn) [Example 105, N-((R)-1-(2,4-difluorophenyl)-2,2,2-trifluoroethyl)-2-(2,6-dioxopiperidin-3-yl)-4-fluoro-1-oxoisoindoline-5-carboxamide]	< 100	* (a Y value (shown as *) of 0<Y≤20%)
O=C1CC[C@@H](N2Cc3cc(C(=O)N[C@H](c4ncccc4Cl)C(F)(F)F)ccc3C2=O)C(=O)N1 [Example 182, N-((R)-1-(3-chloropyridin-2-yl)-2,2,2-trifluoroethyl)-2-((R)-2,6-dioxopiperidin-3-yl)-1-oxoisoindoline-5-carboxamide]	< 100	* (a Y value (shown as *) of 0<Y≤20%)
C[C@H](NC(=O)c1ccc2c(c1)CN(C1CCC(=O)NC1=O)C2=O)C(C)(C)C (stereo partly drawn) [Example 30]	500 to 1000	** (a Y value (shown as**) of 20%<Y≤35%)
O=C1CCC(N2Cc3cc(C(=O)N[C@@H](c4ccccc4F)C(F)(F)F)ccc3C2=O)C(=O)N1 (stereo partly drawn) [Example 197, 2-(2,6-dioxopiperidin-3-yl)-1-oxo-N-((S)-2,2,2-trifluoro-1-(2-fluorophenyl)ethyl)isoindoline-5-carboxamide]	500 to 1000	*** (a Y value (shown as***) of 35%<Y<50%)
Cc1cccnc1[C@@H](NC(=O)c1ccc2c(c1)CN(C1CCC(=O)NC1=O)C2=O)C(F)(F)F (stereo partly drawn) [Example 199, 2-(2,6-dioxopiperidin-3-yl)-1-oxo-N-((R)-2,2,2-trifluoro-1-(3-methylpyridin-2-yl)ethyl)isoindoline-5-carboxamide]	< 100	* (a Y value (shown as *) of 0<Y≤20%)
O=C1CCC(N2Cc3cc(C(=O)N[C@H](c4ccc(F)cc4)C(F)(F)F)c(F)cc3C2=O)C(=O)N1 (stereo partly drawn) [Example 92, 2-(2,6-dioxopiperidin-3-yl)-6-fluoro-1-oxo-N-((R)-2,2,2-trifluoro-1-(4-fluorophenyl)ethyl)isoindoline-5-carboxamide]	100 to 500	** (a Y value (shown as**) of 20%<Y≤35%)
C[C@H](NC(=O)c1ccc2c(c1)CN(C1CCC(=O)NC1=O)C2=O)c1cccc(C#N)c1 (stereo partly drawn) [Example 11]	100 to 500	** (a Y value (shown as**) of 20%<Y≤35%)
CC(C)(C#N)[C@@H](NC(=O)c1ccc2c(c1)CN(C1CCC(=O)NC1=O)C2=O)C(F)(F)F (stereo partly drawn) [Example 87, N-((R)-3-cyano-1,1,1-trifluoro-3-methylbutan-2-yl)-2-(2,6-dioxopiperidin-3-yl)-1-oxoisoindoline-5-carboxamide]	100 to 500	** (a Y value (shown as**) of 20%<Y≤35%)
O=C1CCC(N2Cc3c(ccc(C(=O)N[C@H](c4ncccc4F)C(F)(F)F)c3F)C2=O)C(=O)N1 (stereo partly drawn) [Example 117, 2-(2,6-dioxopiperidin-3-yl)-4-fluoro-1-oxo-N-((R)-2,2,2-trifluoro-1-(3-fluoropyridin-2-yl)ethyl)isoindoline-5-carboxamide]	100 to 500	** (a Y value (shown as**) of 20%<Y≤35%)
O=C1CCC(N2Cc3cc(C(=O)N[C@H](c4ccc(C(F)(F)F)cn4)C(F)(F)F)ccc3C2=O)C(=O)N1 (stereo partly drawn) [Example 126, 2-(2,6-dioxopiperidin-3-yl)-1-oxo-N-((R)-2,2,2-trifluoro-1-(5-(trifluoromethyl)pyridin-2-yl)ethyl)isoindoline-5-carboxamide]	< 100	** (a Y value (shown as**) of 20%<Y≤35%)
O=C1CCC(N2Cc3cc(C(=O)N[C@@H](C(F)(F)F)C45CC(C4)C5)ccc3C2=O)C(=O)N1 (stereo partly drawn) [Example 57, N-((R)-1-(bicyclo[1.1.1]pentan-1-yl)-2,2,2-trifluoroethyl)-2-(2,6-dioxopiperidin-3-yl)-1-oxoisoindoline-5-carboxamide]	< 100	* (a Y value (shown as *) of 0<Y≤20%)
CC(C)[C@H](C)NC(=O)c1ccc2c(c1)CN(C1CCC(=O)NC1=O)C2=O (stereo partly drawn) [Example 28]	100 to 500	** (a Y value (shown as**) of 20%<Y≤35%)
CC1([C@@H](NC(=O)c2ccc3c(c2)CN(C2CCC(=O)NC2=O)C3=O)C(F)(F)F)COC1 (stereo partly drawn) [Example 94, 2-(2,6-dioxopiperidin-3-yl)-1-oxo-N-((R)-2,2,2-trifluoro-1-(3-methyloxetan-3-yl)ethyl)isoindoline-5-carboxamide]	100 to 500	** (a Y value (shown as**) of 20%<Y≤35%)
